{"source": "PubChem BioAssay AID624497", "about": "(The Scripps Research Institute Molecular Screening Center, 2012)", "note": "Activity calls are given as the source filed them. No rule for the calls is given here."}
{"biological_target": "Methionine sulfoxide reductase A (Bos taurus)", "assay": "concentration-response MsrA enzyme activation – biochemical, absorbance, bovine, late stage, dose response (AID 624497)", "settings": "purified MsrA enzyme activity, absorbance read-out"}
{"smiles": "C[n+]1c2ccccc2nc2ccc(NCCO)cc21", "EC50": "4.93 µM"}
{"smiles": "c1ccc2[nH]c3cc4ncnc4cc3nc2c1", "EC50": "inactive"}
{"smiles": "O=C1C(=O)c2cccnc2-c2ncccc21", "EC50": "4.46 µM"}
{"smiles": "O=C1c2ccccc2-c2nnc(-c3ccccc3)cc21", "EC50": "> 104 µM (inactive)"}
{"smiles": "OCC[n+]1c2ccccc2nc2ccc(N3CCOCC3)cc21", "EC50": "inactive"}
{"smiles": "O=C1CN(C(=O)COC(=O)c2ccc([N+](=O)[O-])s2)c2ccccc2N1", "EC50": "inactive"}
{"smiles": "CC(C)(C)c1ccc(NC(=O)COC(=O)c2ccc([N+](=O)[O-])s2)cc1", "EC50": "> 104 µM (inactive)"}
{"smiles": "O=C(OCC(=O)N(c1ccccc1)c1ccccc1)c1ccc([N+](=O)[O-])s1", "EC50": "inactive"}
{"smiles": "O=C(OCC(=O)c1c[nH]c2ccccc12)c1ccc([N+](=O)[O-])s1", "EC50": "> 104 µM (inactive)"}
{"smiles": "O=C(OCC(=O)N1CCN(c2ccccc2)CC1)c1ccc([N+](=O)[O-])s1", "EC50": "inactive"}
{"smiles": "O=C(COC(=O)c1ccc([N+](=O)[O-])s1)NCCc1ccccc1", "EC50": "inactive"}
{"smiles": "O=C(OCc1nnc(-c2ccccc2)o1)c1ccc([N+](=O)[O-])s1", "EC50": "inactive"}
{"smiles": "Nc1nc(=S)ss1", "EC50": "inactive"}
{"smiles": "Cc1ccc2[nH]c3c(c2c1)CN(C(=O)CN1CCN(c2ccccn2)CC1)CC3", "EC50": "> 104 µM (inactive)"}
{"smiles": "COCCCn1c(=O)c2ccccc2n2c(=S)[nH]nc12", "EC50": "> 104 µM (inactive)"}
{"smiles": "O=C(COC(=O)c1ccc([N+](=O)[O-])s1)Nc1ccccc1", "EC50": "> 104 µM (inactive)"}
{"smiles": "O=C(COC(=O)c1ccc([N+](=O)[O-])s1)c1ccc[nH]1", "EC50": "inactive"}
{"smiles": "COc1cc(NC(=O)COC(=O)c2ccc([N+](=O)[O-])s2)cc(OC)c1OC", "EC50": "> 104 µM (inactive)"}
{"smiles": "O=C(COC(=O)c1ccc([N+](=O)[O-])s1)NNC(=O)c1ccccc1", "EC50": "> 104 µM (inactive)"}
{"smiles": "O=C(COC(=O)c1ccc([N+](=O)[O-])s1)NCc1ccc(F)cc1", "EC50": "inactive"}
{"smiles": "COc1ccc(S(=O)(=O)N2CCOCC2)cc1NC(=O)COC(=O)c1ccc([N+](=O)[O-])s1", "EC50": "inactive"}
{"smiles": "Cc1oc2c(c1C(=O)c1ccccc1)C(=O)C(=O)c1ccccc1-2", "EC50": "> 104 µM (inactive)"}
{"smiles": "O=C1C(Cl)=C(Nc2ccc(O)cc2)C(=O)c2ccccc21", "EC50": "> 104 µM (inactive)"}
{"smiles": "NC1=C(Br)C(=O)c2ccccc2C1=O", "EC50": "> 104 µM (inactive)"}
{"smiles": "COc1ccccc1NC(=O)COC(=O)c1ccc([N+](=O)[O-])s1", "EC50": "inactive"}
{"smiles": "CNc1ccc2nc3ccccc3[n+](C)c2c1", "EC50": "2.05 µM"}
{"smiles": "O=C(COC(=O)c1ccc([N+](=O)[O-])s1)Nc1cccc(S(=O)(=O)NC2=NCCCCC2)c1", "EC50": "> 104 µM (inactive)"}
{"smiles": "O=C1C=C(Nc2ccccc2O)c2ccccc2C1=O", "EC50": "> 104 µM (inactive)"}
{"smiles": "O=[N+]([O-])c1ccc(C=Nc2cccc3ccccc23)s1", "EC50": "> 104 µM (inactive)"}
{"smiles": "CS(=O)(=O)c1ccc(N)c(SSc2cc(S(C)(=O)=O)ccc2N)c1", "EC50": "> 104 µM (inactive)"}
{"smiles": "O=C(c1ccccc1)c1coc2c1C(=O)c1ccccc1C2=O", "EC50": "inactive"}
{"smiles": "CC1CCCC(NC(=O)COC(=O)c2ccc([N+](=O)[O-])s2)C1C", "note": "(configuration not stated)", "EC50": "inactive"}
